Measured values published in US10610517B2, “Compositions and methods for treating neoplastic diseases” (Celgene International II Sàrl, priority 2004, dated 2020).

What was measured:
[1] = system: 20S proteasome in white blood cell (WBC) lysates; assay: Ex vivo 20S proteasome activity in whole blood cells in mice
Procedure: To directly determine whether the compound of formula (II) (X=Cl) inhibits proteasome activity in vivo, the compound of formula (II) (X=Cl) was dissolved in 100% DMSO and serially diluted with 5% Solutol (Solutol® HS15; polyethylene glycol 660 12-hydroxystearate, BASF, Shreveport, La.) yielding a final concentration of 2% DMSO. The vehicle control consisted of 2% DMSO and 98% (5% Solutol® HS15). Male Swiss-Webster mice (five per group, 20-25 grams in weight) were treated at Bolder BioPATH, Inc. (Boulder, Colo.) with various concentrations of the compound either intravenously or orally at a volume of 10 mL/kg. One group of animals was untreated to establish a baseline of proteasome activity. Ninety minutes after administration of the compound, the animals were anesthetized and blood withdrawn by cardiac puncture. Packed whole blood cells were collected by centrifugation, washed with PBS, and frozen on dry ice for determination of ex vivo proteasome activity. Chymotrypsin-like activity of the 20S proteasome in white blood cell (WBC) lysates was determined using the peptide substrate suc-LLVY-AMC. Relative Fluoresence Units (RFU) were normalized using the protein concentrations of the cell lysates. The 20S proteasome activity of the individual mice is shown in FIG. 2 with the horizontal bar representing the average activity. […]

[2] = system: MM.1S MM cells; assay: VEGF-induced migration of MM cells; format: cell-based, human; conditions: 7 or 10 nM; FIG. 8
Procedure: VEGF is elevated in the bone marrow microenvironment and triggers migration, growth, and angiogenesis in MM cells. See Podar, K., Tai, Y. T., Lin, B. K., Narsimhan, R. P., Sattler, M., Kijima, T., Salgia, R., Gupta, D., Chauhan, D. & Anderson, K. C. […] Thus, whether the compound of formula (II) (X=Cl) alters VEGF-induced migration of MM cells was evaluated. VEGF induced migration was examined in the presence or absence of the compound (7 or 10 nM). Cell migration was assayed as described previously in Podar, K., Tai, Y. T., Davies, F. E., Lentzsch, S., Sattler, M., Hideshima, T., Lin, B. K., Gupta, D., Shima, Y., Chauhan, D., Mitsiades, C., Raje, N., Richardson, P. & Anderson, K. C. […] These findings indicate that the compound may negatively regulate both homing of MM cells to the bone marrow and their egress into the peripheral blood.

[3] = system: MM.1S cells; assay: MTT viability of MM.1S cells with or without rhIL-6 or rhIGF-I; format: cell-based, human
Description: Adhesion of MM cells to BMSCs induces IL-6 and IGF-I secretion from BMSCs, which not only regulates the growth of MM cells, but also protects against chemotherapy. See Hardin, J., MacLeod, S., Grigorieva, I., Chang, R., Barlogie, B., Xiao, H. & Epstein, J. (1994) Blood 84, 3063-70 and Chauhan, D., Kharbanda, S., Ogata, A., Urashima, M., Teoh, G., Robertson, M., Kufe, D. W. & Anderson, K. C. […] Thus, whether rhIL-6 or rhIGF-I inhibits apoptosis in MM cells induced by the compound of Formula (II) (X=Cl) was evaluated. […] At 24 h cells were harvested and viability analyzed by MTT assays. […] Median viability was 51±2.1% after treatment with Dex and 92±5.5% for Dex+rhIL-6 (P=0.05, as determined by one-sided Wilcoxon rank-sum test). Results are mean±SD of three independent experiments. […] In contrast and as in other studies, both IL-6 and IGF-I block Dex-induced decreased MM.1S cell viability. See Chauhan, D., Hideshima, T. & Anderson, K. C. (2003) Int J Hematol 78, 114-20 and Mitsiades, C. S., Mitsiades, N., Poulaki, V., Schlossman, R., Akiyama, M., Chauhan, D., Hideshima, T., Treon, S. P., Munshi, N. C., Richardson, P. G. & Anderson, K. C.

[4] = system: Mouse embryonic fibroblast (MEFs); assay: MTT viability of MEFs with wild-type or knock-out Bax; format: cell-based; conditions: 48 h; FIG. 12F
Description: Results are mean±SD of three independent experiments (P<0.05).

[5] = target: proteasome β-5, β-1, β-2 subunits in MM.1S cells (Homo sapiens, UniProt P28072+P28074+Q99436); format: cell-based
Procedure: In vivo determination of proteasome activity was conducted using a competition experiment with Dansyl-Ahx3L3VS, which covalently modifies all active proteasome subunits. This inhibitor contains a dansyl sulfonamide hexanoyl hapten that can be visualized by immunoblotting using antibodies against the dansyl moiety. […] Cells were lysed by incubating them for 30 mins in NP-40 lysis buffer (50 mM Tris-HCl pH 8.0, 150 mM NaCl, 1% NP-40), followed by 5 min. centrifugation to remove membrane fractions, nuclei, and cell debris. […] Blots were developed by enhanced chemiluminescence (Western Lightning, Perkin-Elmer).

[6] = target: T1, human erythrocyte-derived 20S proteasome (Homo sapiens, UniProt P28072+P28074+Q99436); assay: In vitro 20S proteasome activity assay; format: biochemical; conditions: Suc-LLVY-AMC, Z-LLE-AMC, Boc-LRR-AMC substrates; FIG. 1
T1 construct: Purified human erythrocyte-derived 20S proteasome were obtained from Biomol; purchased Biomol, Plymouth Meeting, Pa; host or cells: purified from human erythrocytes
Procedure: The chymotrypsin-like activity of the 20S proteasome was measured as described in Stein, R. L., Melandri, F. & Dick, L. (1996) Biochemistry 35, 3899-908 and Lightcap, E. S., McCormack, T. A., Pien, C. […] Purified human erythrocyte-derived 20S proteasome were obtained from Biomol, Plymouth Meeting, Pa. The chymotrypsin-like, caspase-like and trypsin-like activity activities of the 20S proteasome were determined using Suc-LLVY-AMC, Z-LLE-AMC (Boston Biochem, Cambridge, Mass.) and Boc-LRR-AMC (Bachem Bioscience, King of Prussia, Pa.) as peptide substrates, respectively. Fluorescence of the cleaved peptide substrate was measured using a Fluoroskan Ascent 96-well microplate reader (Thermo Electron, Waltham, Mass.). The EC50 values were calculated by Prism (GraphPad Software) using a sigmoidal dose-response, variable slope model. The EC50 values were defined as the drug concentration at which 50% of the maximal relative fluorescence is inhibited.

[7] = system: purified (CD138-positive) patient MM cells; assay: DNA fragmentation apoptosis assay on purified patient MM cells

With `CC12OC(=O)C1(C(O)C1C=CCCC1)NC(=O)C2CCCl` (centres unmarked) [compound of formula (II) (X=Cl)] the oral activity ([1]; oral administration, mice) was “orally active”, the “Chymotrypsin-like activity of the 20S proteasome in WBC lysates” value ([1]; single i.v. or oral administration, 90 minutes after administration, FIG. 2) was “inhibits chymotrypsin-like activity of 20S proteasomes in white blood cells in a dose-dependent manner” and the VEGF-induced migration [2] was “decreases VEGF-induced migration”. The median cell viability ([3]; agent + rhIL-6 (10 ng/ml), 24 h (compound 7 nM; Dex 0.5 μM)) was 51.2±3.2%, the median cell viability ([3]; agent alone, 24 h (compound 7 nM; Dex 0.5 μM)) was 47±2.3% and the median cell viability ([3]; compound 7 nM + rhIGF-I (50 ng/ml), 24 h) was 50.3%±2.0. For the same compound, the “cell viability in Bax (WT) and Bax (knock-out) MEFs” value [4] was “decreases viability in both Bax (WT) and Bax (knock-out)”, the “dansylAhx3L3VS-labeling of the β-5 subunits” value ([5]; 7 nM, 30 mins, 1 h or 3 h, FIG. 4) was “decreases the dansylAhx3L3VS-labeling of the β-5 subunits” and the “concentration decreasing dansylAhx3L3VS-labeling of the β-1 subunits” value ([5]; MM.1S cells) was 1 nM. For the same compound, the “concentration decreasing dansylAhx3L3VS-labeling of the β-2 subunits” value ([5]; MM.1S cells) was 20 nM, the “inhibition of chymotrypsin-like, caspase-like and trypsin-like activities of the 20S proteasome” value [6] was “inhibits all three proteasome activities” and the “apoptosis by DNA fragmentation assay” value ([7]; 10 nM, 24 h, nine relapsed MM patients, FIG. 5B) was “significant apoptosis”. For the same compound, the increase in apoptosis ([7]; CD138+ cells of two patients, 20 nM, 24 h, FIG. 6) was 10-12 fold and the “IC50 for MM cells” value ([7]; stated in words) was “within the nanomolar concentration”.
